Molecules are shown by their SMILES.

Experimental findings from the supplement of paper PMC11061612 are described below.

What all share (assay): Bliss excess, mean over the matrix (fraction); higher = more synergy
For one assay, the system named is NB1 (Neuroblastoma). The method, boiled down:
(§1)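 Bliss excess equals the observed combination effect minus the expected value EA + EB − EA·EB, where EA and EB are the effects of each agent alone. Combination Emax is the second-highest inhibition within the matrix. Inhibition was scaled from CellTiter-Glo 2.0 luminescence, with 0 set by vehicle wells and 1 by blank wells, after 72 hours of two-drug dosing of cells plated in 1536-well plates.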

A further assay has as its system WM35 (Melanoma). The method, boiled down: as §1
Another assay relates to T47D (Breast Carcinoma). The method, boiled down:
as §1

For assay [1], the system named is HT-1080 (Other Solid Carcinomas). The method, boiled down: as §1
The test system of assay [2] is LCLC-103H (Non-Small Cell Lung Carcinoma). The method, boiled down: as §1
The test system of the next assay is NCI-H226 (Mesothelioma). The method in brief:
as §1

Assay [3] concerns SNU-407 (Colorectal Carcinoma). The method in brief:
as §1

Assay [4] deals with PL4 (Pancreatic Carcinoma). The method in brief: as §1
The subject of assay [5] is DBTRG-05MG (Glioblastoma). The method in brief: as §1
The subject of assay [6] is BxPC-3 (Pancreatic Carcinoma). The method, boiled down: as §1
For assay [7], the system named is SCC-4 (Oral Cavity Carcinoma). The method in brief: as §1
The subject of a further assay is IST-MEL1 (Melanoma). The method in brief: as §1
The subject of assay [8] is ZR-75-30 (Breast Carcinoma). The method in brief:
as §1

For assay [9], the system named is P32-ISH (Burkitt's Lymphoma). The method, boiled down:
as §1

In assay [10] the test system is NCI-H596 (Other Solid Carcinomas). The method in brief: as §1
The test system of the next assay is GAK (Melanoma). The method in brief:
as §1

Assay [11] concerns COR-L88 (Small Cell Lung Carcinoma). The method in brief:
as §1

Assay [12] has as its system MONO-MAC-6 (Acute Myeloid Leukemia). The method, boiled down:
as §1

Another assay has as its system NCI-H2373 (Mesothelioma). The method in brief:
as §1

Assay [13] relates to NAMALWA (Burkitt's Lymphoma). The method, boiled down:
as §1

As to `CN(CCO)CC[C@H](CSc1ccccc1)Nc1ccc(S(=O)(=O)NC(=O)c2ccc(N3CCC([C@@H](O)c4ccccc4-c4ccc(Cl)cc4)CC3)cc2)cc1S(=O)(=O)C(F)(F)F` [AZD4320] + C=CCn1c(=O)c2cnc(Nc3ccc(N4CCN(C)CC4)cc3)nc2n1-c1cccc(C(C)(C)O)n1 [AZD1775] (first compound max 1 µM, partner max 1 µM), the Bliss excess in the assay with NB1 (Neuroblastoma) was 0.0014; in the assay on WM35 (Melanoma), -0.0178; in the assay with T47D (Breast Carcinoma) it was -0.0509; in assay [1], -0.0354; in assay [2] it was 0.0297; in the assay on NCI-H226 (Mesothelioma), -0.025. For the same compound, the Bliss excess in [3] is -0.0677; in assay [4] it was -0.0586; in [5], 0.0555; in assay [6], 0.0575; in assay [7], 0.0838; with IST-MEL1 (Melanoma), 0.0339. The Bliss excess is -0.0083 in assay [8]; 0.107 in assay [9]; 0.0361 in [10]; -0.0536 with GAK (Melanoma); 0.0578 in assay [11]; 0.117 in [12]. Also, the values for the Bliss excess (in the assay on NCI-H2373 (Mesothelioma); in assay [13]) were -0.0089 and -0.0219, respectively.

For `COc1cccc(OCCCN)c1-c1cc(Nc2cnc(C#N)cn2)n[nH]1` [Prexasertib] + O=C(c1cc(Cc2n[nH]c(=O)c3ccccc23)ccc1F)N1CCN(C(=O)C2CC2)CC1 [Olaparib] (first compound max 1 µM, 7x7, partner max 10 µM), the Bliss excess in the assay with NB1 (Neuroblastoma) was -0.0411; with WM35 (Melanoma), -0.0377; with T47D (Breast Carcinoma), -0.0093; in assay [1], 0.0164; in assay [2] it was -0.0572; in the assay on NCI-H226 (Mesothelioma), -0.0802. Besides, the Bliss excess in assay [3] is -0.0041; in assay [4], 0.0356; in assay [5] it was -0.025; in assay [6], -0.0706; in assay [7], -0.109; with IST-MEL1 (Melanoma), -0.124. In addition, the Bliss excess in assay [8] is -0.108; in [9] it was -0.0205; in assay [10], 0.0098; in the assay with GAK (Melanoma), -0.0159; in [11], -0.157; in assay [12], -0.0195. In addition, the Bliss excess with NCI-H2373 (Mesothelioma) is 0.001; in assay [13] it was -0.044.

Regarding `CN(C)CCCOc1ccc(-c2ccc3ncc4c(c3c2)n(C2CCOCC2)c(=O)n4C)cn1` [AZD0156] + C=CCn1c(=O)c2cnc(Nc3ccc(N4CCN(C)CC4)cc3)nc2n1-c1cccc(C(C)(C)O)n1 [AZD1775] (first compound max 1 µM, partner max 1 µM), the Bliss excess in the assay on NB1 (Neuroblastoma) is -0.0109; in the assay with WM35 (Melanoma), -0.0166; with T47D (Breast Carcinoma), 0.0108; in assay [1], -0.0316; in assay [2], -0.0079; with NCI-H226 (Mesothelioma), -0.0862. Besides, the Bliss excess in [3] was -0.0136; in assay [4], -0.0586; in assay [5], -0.0489; in assay [6], -0.0506; in assay [7], -0.0393; with IST-MEL1 (Melanoma), -0.0225. Also, the Bliss excess in assay [8] is -0.0398; in assay [9], -0.011; in assay [10], 0.0029; with GAK (Melanoma) it was -0.0058; in assay [11] it was -0.0013; in assay [12] it was 0.0017. Also, the Bliss excess in the assay on NCI-H2373 (Mesothelioma) was -0.0126; in [13], 0.0156.

As for `COc1cccc(OCCCN)c1-c1cc(Nc2cnc(C#N)cn2)n[nH]1` [Prexasertib] + CCc1c2c(nc3ccc(O)cc13)-c1cc3c(c(=O)n1C2)COC(=O)[C@]3(O)CC [SN-38] (first compound max 1 µM, 7x7, partner max 0.3 µM), the Bliss excess in the assay on NB1 (Neuroblastoma) is -0.0529; with WM35 (Melanoma), -0.0582; in the assay on T47D (Breast Carcinoma) it was -0.0399; in assay [1], -0.0274; in assay [2], 0.081; in the assay with NCI-H226 (Mesothelioma) it was -0.058. Further, the Bliss excess is -0.0384 in assay [3]; -0.0027 in assay [4]; -0.0558 in [5]; 0.0111 in assay [6]; 0.0021 in [7]; -0.0552 in the assay on IST-MEL1 (Melanoma). Besides, the Bliss excess in [8] is -0.0408; in [9], -0.0201; in assay [10], 0.0625; in the assay with GAK (Melanoma) it was 0.0087; in [11], -0.0204; in [12] it was 0.0092. Further, the Bliss excess is 0.0224 in the assay with NCI-H2373 (Mesothelioma) and -0.0197 in assay [13].

With `C=CCn1c(=O)c2cnc(Nc3ccc(N4CCN(C)CC4)cc3)nc2n1-c1cccc(C(C)(C)O)n1` [AZD1775] + C[C@@H]1COCCN1C2=NC(=NC(=C2)C3(CC3)[S@](=N)(=O)C)C4=C5C=CNC5=NC=C4 [AZD6738] (first compound max 1 µM, partner max 10 µM), the Bliss excess was -0.0161 in the assay with NB1 (Neuroblastoma); 0.0626 in the assay on WM35 (Melanoma); -0.0302 with T47D (Breast Carcinoma); 0.0145 in assay [1]; 0.0108 in assay [2]; -0.0327 with NCI-H226 (Mesothelioma). Moreover, the Bliss excess in assay [3] is 0.0031; in assay [4] it was 0.0501; in assay [5], -0.0076; in assay [6], -0.0161; in assay [7] it was -0.0248; in the assay on IST-MEL1 (Melanoma) it was 0.021. In addition, the Bliss excess was found to be 0.0186 in assay [8]; 0.0304 in [9]; 0.0323 in assay [10]; 0.0196 with GAK (Melanoma); 0.04 in assay [11]; 0.0178 in [12]. For the same compound, the Bliss excess in the assay on NCI-H2373 (Mesothelioma) amounted to 0.025; in [13], 0.0397.

As to `Cn1cnc2c(F)c(Nc3ccc(Br)cc3Cl)c(C(=O)NOCCO)cc21` [Selumetinib] + CC(C)n1c(=O)n(C)c2cnc3cc(F)c(-c4ccc(OCCCN5CCCCC5)nc4)cc3c21 [AZD1390] (first compound max 10 µM, 7x7, partner max 0.3 µM), the Bliss excess in the assay on NB1 (Neuroblastoma) is -0.0646; with WM35 (Melanoma), -0.0551; in the assay on T47D (Breast Carcinoma) it was -0.0468; in assay [1], -0.0697; in assay [2] it was -0.0154; in the assay on NCI-H226 (Mesothelioma), -0.0344. The Bliss excess in assay [3] was -0.0235; in [4], 0.0102; in assay [5], 0.0213; in [6], -0.0518; in assay [7], -0.0669; in the assay with IST-MEL1 (Melanoma), -0.013. The Bliss excess was -0.044 in assay [8]; -0.0083 in assay [9]; -0.0459 in [10]; -0.0415 in the assay on GAK (Melanoma); -0.0086 in [11]; -0.0166 in assay [12]. In addition, the Bliss excess is -0.0044 in the assay with NCI-H2373 (Mesothelioma) and -0.0102 in assay [13].
